Experimental data reported in PubChem BioAssay AID248 (DTP/NCI, 2004).
“And” between values parts separate entries of the source, which are not always exact repeats. Identical values can stand only once. Inconclusive results and toxic doses are left out. Rule as the data show it: active = T/C of 150% or more; inactive = T/C below 125%.

System: L1210 leukemia ip in BDF1 mice, survival T/C
Experiment: NCI In Vivo Anticancer Drug Screen. Data for tumor model L1210 Leukemia (intraperitoneal) in B6D2F1 (BDF1) mice
Conditions: endpoint: mean survival time, higher = longer survival
Method in brief: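 Antitumor effect is assessed in tumor-bearing animals. Survival in the compound arm is compared with a vehicle-dosed control arm and expressed as their quotient.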

[1] = dose: 100.0 mg/kg/injection, schedule: Q01DX001 (ip), vehicle: carboxymethylcellulose (CMC)
[2] = dose: 200.0 mg/kg/injection, schedule: Q01DX001 (ip), vehicle: carboxymethylcellulose (CMC)
[3] = dose: 400.0 mg/kg/injection, schedule: Q01DX001 (ip), vehicle: carboxymethylcellulose (CMC)
[4] = dose: 100.0 mg/kg/injection, schedule: Q04DX002 (ip), vehicle: Klucel (hydroxypropylcellulose) (HPC)
[5] = dose: 200.0 mg/kg/injection, schedule: Q04DX002 (ip), vehicle: Klucel (hydroxypropylcellulose) (HPC)
[6] = dose: 400.0 mg/kg/injection, schedule: Q04DX002 (ip), vehicle: Klucel (hydroxypropylcellulose) (HPC)
[7] = dose: 100.0 mg/kg/injection, schedule: Q01DX009 (ip), vehicle: Klucel (hydroxypropylcellulose) (HPC)
[8] = dose: 100.0 mg/kg/injection, schedule: Q04DX003 (ip), vehicle: Klucel (hydroxypropylcellulose) (HPC)
[9] = dose: 200.0 mg/kg/injection, schedule: Q04DX003 (ip), vehicle: Klucel (hydroxypropylcellulose) (HPC)
[10] = dose: 400.0 mg/kg/injection, schedule: Q04DX003 (ip), vehicle: Klucel (hydroxypropylcellulose) (HPC)

Measured: T/C

CCC(=O)CC(C)CC (configuration not stated)
inactive: dose: 50.0 mg/kg/injection, schedule: Q01DX001 (ip), vehicle: carboxymethylcellulose (CMC) 94 % of control | [1] 102 % of control | [2] 91 % of control | [3] 102 % of control

CCC(/C=C\C(C)C1CCC2C3CC=C4CC(O)CCC4(C)C3CCC12C)C(C)C (configuration not stated)
inactive: dose: 75.0 mg/kg/injection, schedule: Q01DX009 (sc), vehicle: steriod suspending solution 94 % of control | [1] 89 % of control | dose: 100.0 mg/kg/injection, schedule: Q04DX003 (sc), vehicle: steriod suspending solution 97 % of control | dose: 150.0 mg/kg/injection, schedule: Q01DX009 (sc), vehicle: steriod suspending solution 98 % of control | [2] 89 % of control | dose: 200.0 mg/kg/injection, schedule: Q04DX003 (sc), vehicle: steriod suspending solution 100 % of control | dose: 300.0 mg/kg/injection, schedule: Q01DX009 (sc), vehicle: steriod suspending solution 97 % of control | [3] 86 % of control | dose: 400.0 mg/kg/injection, schedule: Q04DX003 (sc), vehicle: steriod suspending solution 95 % of control

[N-]=[N+]=CC(=O)CCC(=O)C=[N+]=[N-]
inactive: dose: 0.75 mg/kg/injection, schedule: Q01DX009 (ip), vehicle: other 98 % of control | dose: 1.5 mg/kg/injection, schedule: Q01DX009 (ip), vehicle: other 116 % of control | dose: 6.0 mg/kg/injection, schedule: Q01DX009 (ip), vehicle: other 116 % of control

CCOc1ccc(Cl)cc1
inactive: dose: 75.0 mg/kg/injection, schedule: Q01DX009 (ip), vehicle: Klucel (hydroxypropylcellulose) (HPC) 117 % of control | dose: 100.0 mg/kg/injection, schedule: Q01DX009 (ip), vehicle: saline with Tween-80 108 % of control | [4] 100 % of control | dose: 150.0 mg/kg/injection, schedule: Q01DX009 (ip), vehicle: Klucel (hydroxypropylcellulose) (HPC) 93 % of control | dose: 200.0 mg/kg/injection, schedule: Q01DX009 (ip), vehicle: saline with Tween-80 106 % of control | [5] 103 % of control | dose: 300.0 mg/kg/injection, schedule: Q01DX009 (ip), vehicle: Klucel (hydroxypropylcellulose) (HPC) 96 % of control | [6] 92 % of control

CC(=O)OC1=C(CC(C)C)C(=O)c2ccccc2C1=O
inactive: dose: 100.0 mg/kg/injection, schedule: Q01DX001 (ip), vehicle: saline 104 % of control | dose: 200.0 mg/kg/injection, schedule: Q01DX001 (ip), vehicle: saline 107 % of control | dose: 400.0 mg/kg/injection, schedule: Q01DX001 (ip), vehicle: saline 103 % of control

O=C1C=C(Nc2ccc(Cl)cc2)C(=O)c2ccccc21
inactive: dose: 75.0 mg/kg/injection, schedule: Q01DX001 (ip), vehicle: carboxymethylcellulose (CMC) 93 % of control | dose: 300.0 mg/kg/injection, schedule: Q01DX001 (ip), vehicle: carboxymethylcellulose (CMC) 87 % of control

O=C(Nc1ccc(Cl)cc1)Oc1c(Cl)cc(Cl)c(Cl)c1[N+](=O)[O-]
inactive: dose: 100.0 mg/kg/injection, schedule: Q04DX002 (ip), vehicle: gum acacia 94 % of control | dose: 200.0 mg/kg/injection, schedule: Q04DX002 (ip), vehicle: gum acacia 88 % of control

Cc1cc(C)cc(OCC#CCN(C)c2ccccc2)c1
inactive: [4] 99 % of control | [5] 99 % of control | [6] 96 % of control

O=[N+]([O-])c1ccc(OCn2ncc3ccc([N+](=O)[O-])cc32)cc1
inactive: [1] 93 % of control | [2] 98 % of control | [3] 88 % of control

C=CCNCC(O)c1ccccc1 (configuration not stated)
inactive: dose: 25.0 mg/kg/injection, schedule: Q01DX009 (ip), vehicle: Klucel (hydroxypropylcellulose) (HPC) 90 % of control | dose: 50.0 mg/kg/injection, schedule: Q01DX009 (ip), vehicle: Klucel (hydroxypropylcellulose) (HPC) 95 % of control | [7] 95 % of control and 103 % of control | [8] 95 % of control | [9] 101 % of control | [10] 95 % of control

O=[N+]([O-])c1ccc(S(=O)(=O)OCc2cccc(OS(=O)(=O)c3ccc([N+](=O)[O-])cc3)c2)cc1
inactive: dose: 100.0 mg/kg/injection, schedule: Q01DX001 (ip), vehicle: saline with Tween-80 100 % of control | [7] 94 % of control | [8] 100 % of control | dose: 200.0 mg/kg/injection, schedule: Q01DX001 (ip), vehicle: saline with Tween-80 104 % of control | dose: 200.0 mg/kg/injection, schedule: Q01DX009 (ip), vehicle: Klucel (hydroxypropylcellulose) (HPC) 93 % of control | [9] 95 % of control | dose: 400.0 mg/kg/injection, schedule: Q01DX001 (ip), vehicle: saline with Tween-80 102 % of control | dose: 400.0 mg/kg/injection, schedule: Q01DX009 (ip), vehicle: Klucel (hydroxypropylcellulose) (HPC) 107 % of control | [10] 102 % of control
